In PubChem BioAssay (NCI):
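Values below derive from 48-hour exposures of cells grown in 96-well plates, with endpoints linearly interpolated between the two concentrations bracketing the appropriate inhibition level. Definition used: TGI = concentration required for complete inhibition of growth.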

Assays:
Assay in all cases: growth of human tumour cells (NCI), 48 h
RXF 393 renal = test system: RXF 393 renal
EKVX NSCLC = test system: EKVX NSCLC
SNB-78 CNS = test system: SNB-78 CNS
KM12 colon = test system: KM12 colon
LXFL 529 NSCLC = test system: LXFL 529 NSCLC
RPMI-8226 leukemia = test system: RPMI-8226 leukemia
OVCAR-3 ovarian = test system: OVCAR-3 ovarian
COLO 205 colon = test system: COLO 205 colon
HCC-2998 colon = test system: HCC-2998 colon
IGROV1 ovarian = test system: IGROV1 ovarian
OVCAR-5 ovarian = test system: OVCAR-5 ovarian
MALME-3M melanoma = test system: MALME-3M melanoma
SK-MEL-2 melanoma = test system: SK-MEL-2 melanoma
SN12C renal = test system: SN12C renal
SK-MEL-28 melanoma = test system: SK-MEL-28 melanoma
HCT-15 colon = test system: HCT-15 colon
SF-295 CNS = test system: SF-295 CNS
TK-10 renal = test system: TK-10 renal
OVCAR-8 ovarian = test system: OVCAR-8 ovarian
SNB-75 CNS = test system: SNB-75 CNS
U251 CNS = test system: U251 CNS
SR leukemia = test system: SR leukemia
SF-539 CNS = test system: SF-539 CNS
A549 NSCLC = test system: A549 NSCLC
SNB-19 CNS = test system: SNB-19 CNS
NCI-H226 lung = test system: NCI-H226 lung
NCI-H23 lung = test system: NCI-H23 lung
UACC-257 melanoma = test system: UACC-257 melanoma
HT29 colon = test system: HT29 colon
SK-OV-3 ovarian = test system: SK-OV-3 ovarian
K-562 leukemia = test system: K-562 leukemia
SF-268 CNS = test system: SF-268 CNS
SK-MEL-5 melanoma = test system: SK-MEL-5 melanoma
MOLT-4 leukemia = test system: MOLT-4 leukemia
HCT-116 colon = test system: HCT-116 colon
SW-620 colon = test system: SW-620 colon
CAKI-1 renal = test system: CAKI-1 renal
DMS 114 small cell lung = test system: DMS 114 small cell lung
DMS 273 small cell lung = test system: DMS 273 small cell lung
786-0 renal = test system: 786-0 renal
M19-MEL melanoma = test system: M19-MEL melanoma
UO-31 renal = test system: UO-31 renal
ACHN renal = test system: ACHN renal
UACC-62 melanoma = test system: UACC-62 melanoma
KM20L2 colon = test system: KM20L2 colon
NCI-H460 lung = test system: NCI-H460 lung
NCI-H522 lung = test system: NCI-H522 lung
HOP-92 NSCLC = test system: HOP-92 NSCLC
DLD-1 colon = test system: DLD-1 colon
LOX IMVI melanoma = test system: LOX IMVI melanoma
CCRF-CEM leukemia = test system: CCRF-CEM leukemia
OVCAR-4 ovarian = test system: OVCAR-4 ovarian
HOP-62 NSCLC = test system: HOP-62 NSCLC
M14 melanoma = test system: M14 melanoma
A498 renal = test system: A498 renal
MCF7 breast = test system: MCF7 breast
HS 578T breast = test system: HS 578T breast
MDA-MB-231 breast = test system: MDA-MB-231 breast
PC-3 prostate = test system: PC-3 prostate
MDA-N = test system: MDA-N
NCI/ADR-RES ovarian = test system: NCI/ADR-RES ovarian
BT-549 breast = test system: BT-549 breast
HL-60(TB) leukemia = test system: HL-60(TB) leukemia
T-47D breast = test system: T-47D breast
DU-145 prostate = test system: DU-145 prostate
MDA-MB-435 = test system: MDA-MB-435

COc1ccc2c(c1)OCCCN(C)OC2c1ccccc1 (configuration not stated)
TGI (RXF 393 renal): > 100 µM | TGI (EKVX NSCLC): > 100 µM | TGI (SNB-78 CNS): > 100 µM | TGI (KM12 colon): > 100 µM | TGI (LXFL 529 NSCLC): > 100 µM | TGI (RPMI-8226 leukemia): > 100 µM | TGI (OVCAR-3 ovarian): > 100 µM | TGI (COLO 205 colon): > 100 µM | TGI (HCC-2998 colon): > 100 µM | TGI (IGROV1 ovarian): > 100 µM | TGI (OVCAR-5 ovarian): > 100 µM | TGI (MALME-3M melanoma): > 100 µM | TGI (SK-MEL-2 melanoma): > 100 µM | TGI (SN12C renal): > 100 µM | TGI (SK-MEL-28 melanoma): > 100 µM | TGI (HCT-15 colon): > 100 µM | TGI (SF-295 CNS): > 100 µM | TGI (TK-10 renal): > 100 µM | TGI (OVCAR-8 ovarian): > 100 µM | TGI (SNB-75 CNS): > 100 µM | TGI (U251 CNS): > 100 µM | TGI (SR leukemia): > 100 µM | TGI (SF-539 CNS): > 100 µM | TGI (A549 NSCLC): > 100 µM | TGI (SNB-19 CNS): > 100 µM | TGI (NCI-H226 lung): > 100 µM | TGI (NCI-H23 lung): > 100 µM | TGI (UACC-257 melanoma): > 100 µM | TGI (HT29 colon): > 100 µM | TGI (SK-OV-3 ovarian): > 100 µM | TGI (K-562 leukemia): > 100 µM | TGI (SF-268 CNS): > 100 µM | TGI (SK-MEL-5 melanoma): > 100 µM | TGI (MOLT-4 leukemia): > 100 µM | TGI (HCT-116 colon): > 100 µM | TGI (SW-620 colon): > 100 µM | TGI (CAKI-1 renal): > 100 µM | TGI (DMS 114 small cell lung): > 100 µM | TGI (DMS 273 small cell lung): > 100 µM | TGI (786-0 renal): > 100 µM | TGI (M19-MEL melanoma): > 100 µM | TGI (UO-31 renal): > 100 µM | TGI (ACHN renal): > 100 µM | TGI (UACC-62 melanoma): > 100 µM | TGI (KM20L2 colon): > 100 µM

Cc1cc2c(=O)cc(-c3cccs3)oc2c(C(=O)O)c1C
TGI (NCI-H460 lung): > 100 µM | TGI (NCI-H522 lung): 48.4 µM | TGI (EKVX NSCLC): > 100 µM | TGI (KM12 colon): > 100 µM | TGI (LXFL 529 NSCLC): > 100 µM | TGI (RPMI-8226 leukemia): > 100 µM | TGI (OVCAR-3 ovarian): > 100 µM | TGI (COLO 205 colon): > 100 µM | TGI (HCC-2998 colon): > 100 µM | TGI (IGROV1 ovarian): > 100 µM | TGI (HOP-92 NSCLC): > 100 µM | TGI (OVCAR-5 ovarian): > 100 µM | TGI (MALME-3M melanoma): > 100 µM | TGI (SK-MEL-2 melanoma): > 100 µM | TGI (SN12C renal): > 100 µM | TGI (DLD-1 colon): > 100 µM | TGI (SK-MEL-28 melanoma): > 100 µM | TGI (HCT-15 colon): > 100 µM | TGI (SF-295 CNS): > 100 µM | TGI (TK-10 renal): > 100 µM | TGI (LOX IMVI melanoma): > 100 µM | TGI (OVCAR-8 ovarian): > 100 µM | TGI (SNB-75 CNS): 37.6 µM | TGI (U251 CNS): > 100 µM | TGI (CCRF-CEM leukemia): > 100 µM | TGI (A549 NSCLC): > 100 µM | TGI (SNB-19 CNS): > 100 µM | TGI (NCI-H23 lung): > 100 µM | TGI (OVCAR-4 ovarian): > 100 µM | TGI (UACC-257 melanoma): > 100 µM | TGI (HT29 colon): > 100 µM | TGI (SK-OV-3 ovarian): > 100 µM | TGI (K-562 leukemia): > 100 µM | TGI (SF-268 CNS): > 100 µM | TGI (SK-MEL-5 melanoma): > 100 µM | TGI (MOLT-4 leukemia): > 100 µM | TGI (HOP-62 NSCLC): > 100 µM | TGI (HCT-116 colon): > 100 µM | TGI (M14 melanoma): > 100 µM | TGI (SW-620 colon): > 100 µM | TGI (A498 renal): > 100 µM | TGI (DMS 273 small cell lung): > 100 µM | TGI (786-0 renal): > 100 µM | TGI (M19-MEL melanoma): > 100 µM | TGI (UO-31 renal): > 100 µM | TGI (ACHN renal): > 100 µM | TGI (UACC-62 melanoma): > 100 µM | TGI (KM20L2 colon): > 100 µM

COc1cccc2c(=O)c3c(n(C)c12)OC(C(C)C)C3 (configuration not stated)
TGI (RXF 393 renal): > 100 µM | TGI (NCI-H460 lung): > 100 µM | TGI (NCI-H522 lung): > 100 µM | TGI (EKVX NSCLC): > 100 µM | TGI (KM12 colon): > 100 µM | TGI (RPMI-8226 leukemia): > 100 µM | TGI (OVCAR-3 ovarian): > 100 µM | TGI (COLO 205 colon): > 100 µM | TGI (HCC-2998 colon): > 100 µM | TGI (IGROV1 ovarian): > 100 µM | TGI (HOP-92 NSCLC): > 100 µM | TGI (MCF7 breast): > 100 µM | TGI (HS 578T breast): > 100 µM | TGI (OVCAR-5 ovarian): > 100 µM | TGI (MALME-3M melanoma): > 100 µM | TGI (SK-MEL-2 melanoma): > 100 µM | TGI (MDA-MB-231 breast): > 100 µM | TGI (SN12C renal): > 100 µM | TGI (SK-MEL-28 melanoma): > 100 µM | TGI (HCT-15 colon): > 100 µM | TGI (PC-3 prostate): > 100 µM | TGI (SF-295 CNS): > 100 µM | TGI (MDA-N): > 100 µM | TGI (NCI/ADR-RES ovarian): > 100 µM | TGI (BT-549 breast): > 100 µM | TGI (HL-60(TB) leukemia): > 100 µM | TGI (TK-10 renal): > 100 µM | TGI (LOX IMVI melanoma): > 100 µM | TGI (T-47D breast): > 100 µM | TGI (OVCAR-8 ovarian): > 100 µM | TGI (SNB-75 CNS): > 100 µM | TGI (U251 CNS): > 100 µM | TGI (SR leukemia): > 100 µM | TGI (SF-539 CNS): > 100 µM | TGI (CCRF-CEM leukemia): > 100 µM | TGI (A549 NSCLC): > 100 µM | TGI (SNB-19 CNS): > 100 µM | TGI (NCI-H226 lung): > 100 µM | TGI (NCI-H23 lung): > 100 µM | TGI (OVCAR-4 ovarian): 89.2 µM | TGI (UACC-257 melanoma): > 100 µM | TGI (HT29 colon): > 100 µM | TGI (SK-OV-3 ovarian): > 100 µM | TGI (K-562 leukemia): 86.2 µM | TGI (SF-268 CNS): > 100 µM | TGI (DU-145 prostate): > 100 µM | TGI (SK-MEL-5 melanoma): > 100 µM | TGI (MOLT-4 leukemia): > 100 µM | TGI (HOP-62 NSCLC): > 100 µM | TGI (HCT-116 colon): > 100 µM | TGI (M14 melanoma): > 100 µM | TGI (MDA-MB-435): > 100 µM | TGI (SW-620 colon): > 100 µM | TGI (CAKI-1 renal): > 100 µM | TGI (A498 renal): > 100 µM | TGI (786-0 renal): > 100 µM | TGI (UO-31 renal): > 100 µM | TGI (ACHN renal): > 100 µM | TGI (UACC-62 melanoma): > 100 µM
